The source of these data is publication PMC8141534 (The Journal of Biological Chemistry, 2021).

Ends that are not written are not given here.

The test system of one series is Rho. Details: method as in 2 sources, one per row (each row's own in cited_ref): ref [23] = [23]; PMID 8466900; doi:10.1021/bi00065a007; 23 Zwiefka A. Kohn H. Widger W.R. Transcription termination factor rho: The site of Bicyclomycin inhibition in Escherichia coli Biochemistry 32 1993 3564 3570 8466900 10.1021/bi00065a007 ||| ref [24], [25], [26] = [24]; PMID 17565995; doi:10.1074/jbc.M702010200; 24 Gutiérrez P. Kozlov G. Gabrielli L. Elias D. Osborne M.J. Gallouzi I.E. Gehring K. Solution structure of YaeO, a rho-specific inhibitor of transcription termination J. Biol. Chem. 282 2007 23348 23 || [25]; PMID 21673658; doi:10.1038/emboj.2011.192; 25 Rabhi M. Espéli O. Schwartz A. Cayrol B. Rahmouni A.R. Arluison V. Boudvillain M. The Sm-like RNA chaperone Hfq mediates transcription antitermination at Rho-dependent terminators EMBO J. 30 2011 2 || [26]; PMID 31628950; doi:10.1016/j.jmb.2019.09.019; 26 Pal K. Yadav M. Jain S. Ghosh B. Sen R. Sen U. Vibrio cholerae YaeO is a structural homologue of RNA chaperone Hfq that inhibits rho-dependent transcription termination by dissociating its hexameri. Conditions: cited from earlier work; for Rho antagonism (in words): ref [24], [25], [26].

For series [1] the following is noted: pH 5.5.
Another series deals with E. coli MG1655. It counts as cell-based, Escherichia coli. The following applies: MG1655, pNL150, IPTG induction (100 μM), LB, 37 °C, 6 h; three independent colonies.
Series [2] relates to E. coli Rho. The series is described as follows: single round in vitro Rho-dependent transcription termination, T7A1-trpt′ template. The following applies: data not shown. It is filed as biochemical, Escherichia coli.
The subject of series [3] is Rho-dependent termination (galEP3 reporter). The series is described as follows: in vivo Rho-dependent termination, galEP3 reporter, MacConkey-galactose plates. It is filed as cell-based, Escherichia coli. Conditions: MC4100 galEP3, MacConkey-galactose plates, overexpression.
Series [4] relates to Rho mutants, R144E, R146E, and E148R. It counts as cell-based, Escherichia coli. The following applies: 0 and 100 μM IPTG.
The subject of series [5] is Rho-dependent termination (trpt′ and trac terminators, lacZ reporter). It is filed as cell-based, Escherichia coli. Conditions: Fig. 3.
The next series is described as follows: CD spectrometry. It counts as physicochemical. Conditions: 10 mM 2-(N-morpholino)ethanesulfonic acid pH 5.5, 190 to 270 nm, 25 °C.
Series [6] deals with P167L Rho (Escherichia coli, UniProt P0AG30, P167L). Briefly: biochemical. It is filed as binding. The following applies: ITC.
The subject of series [7] is E. coli Rho. The series is described as follows: Rho-mediated RNA release from stalled (roadblocked) elongation complex. It counts as biochemical, Escherichia coli. The following applies: Fig. S4B; for inhibition of Rho-induced RNA release from stalled EC (in words): Fig. 3E.
Series [8] addresses T1, P167L Rho (E. coli, UniProt P0AG30 1-419, P167L).
T1 construct: also called Rho P167L; non-His-tagged P167L Rho
Briefly: pull-down; His-tagged peptides (30 μg peptide 16, 20 μg peptide 33) or His-tagged WT Psu (15 μg) bound to Ni-NTA beads at 4 °C for 12 to 16 h in 100 mM NaH2PO4 pH 8.0, 100 mM NaCl, 10 mM imidazole, 1 mM PMSF; 5 μg non-His-tagged P167L Rho added with 1 mM ATP, 37 °C, 20 min; wash 50 mM imidazole, elution 500 mM imidazole; SDS-Tricine PAGE. The following applies: both partners purified.

With `C=C1CCO[C@]2([C@@H](O)[C@@](C)(O)CO)NC(=O)[C@@]1(O)NC2=O` [bicyclomycin], in the series on Rho (ref [23]), the “Rho inhibition (in words)” value is “directly binds near the ATP-binding sites and inhibits Rho functions”.
Regarding Hfq: PBS-binding Rho antagonist, the “Rho antagonism (in words)” value in the series on Rho is “PBS-binding Rho antagonists”.
Broadly, the Kd is a measure of binding affinity in units of concentration. A low value points to tighter binding. For the molecule “MHHHHHHTPAQGMIFSVKVRTGITSVSVKAWLFWRMREDFQPDTD [peptide 16]”, the “solubility at mildly acidic pH (in words)” value in [1] is “properly soluble at a mildly acidic pH”. The “growth defect upon expression (in words)” value in the series on E. coli MG1655 is recorded as “severe growth defects”. Further, the “effect in transcription termination assay with Rho (in words)” value in the series on E. coli Rho [2] was “much less”. Besides, the “colour of colonies, galEP3 reporter (in words)” value in series [3] is “appearance of red colonies”. Further, in series [4], the “peptide-induced growth defect with Rho mutants (in words)” value is recorded as “could not prevent the peptide-induced growth defect”. Besides, the “in vivo antitermination / Rho inhibitory properties (in words)” value in [5] is “strong in vivo antitermination of Rho-dependent termination”. The “secondary structure by CD (in words)” value in “CD spectrometry” was “predominantly α-helical”. At P167L Rho [6] (Kd, 1 μM Rho P167L, 50 μM peptide, 1 mM ATP, pH 8.0, 25 °C, average of three experiments ± SD, Fig. 4B), this molecule had a dissociation constant Kd of 214 ± 113 nM. In addition, the “binding affinity and stoichiometry (in words)” value at P167L Rho [6] (compared with peptide 33) was “binds with much weaker affinity and with significantly reduced stoichiometry”. Besides, the “inhibition of Rho-induced RNA release from stalled EC (in words)” value with E. coli Rho [7] was “significantly inhibited”; with E. coli Rho [7] (listed as Peptide 16), “could efficiently inhibit the RNA release of Rho only when stalled EC was used”. Besides, the “Frac. of RNA released (%)” value in the series with E. coli Rho [7] (peptide 25, Rho 50 nM) is reported as 38 ± 2%; in the series on E. coli Rho [7] (peptide 50, Rho 50 nM), 22 ± 0.8%; with E. coli Rho [7] (peptide 100, Rho 50 nM), 13 ± 2%.

B1: YaeO: PBS-binding Rho antagonist (protein, UniProt P0AFW8 1-84, looked up)
Protein rof: MNDTYQPINCDDYDNLELACQHHLMLTLELKDGEKLQAKASDLVSRKNVEYLVVEAAGETRELRLDKITSFSHPEIGTVVVSES
Consider B1, for which the “Rho antagonism (in words)” value with Rho is “PBS-binding Rho antagonists”.

B2: His-tagged WT Psu (polarity suppression protein, bacteriophage P4 capsid protein) (natural protein)
chain: MESTALQQAFDTCQNNKAAWLQRKNELAAAEQEYLRLLSGEGRNVSRLDELRNIIEVRKWQVNQAAGRYIRSHEAVQHISIRDRLNDFMQQHGTALAAALAPELMGYSELTAIARNCAIQRATDALREALLSWLAKGEKINYSAQDSDILTTIGFRPDVASVDDSREKFTPAQNMIFSRKSAQLASRQSV
Take B2: the binding result in the series with P167L Rho [8] was “binds”.
